Values joined by “and” are separate entries in the source; they are usually repeats but may differ in a detail not shown here. Identical values can stand only once.
Columns and labels:
MRGPRC11 = target: T1, MRGPRC11 (Mus musculus, UniProt Q8CIP3); assay: Ca2+ imaging and concentration-Ca2+ response in HEK293 cells expressing MRGPRC11; format: cell-based; details: three replicates, Fig 2-N
T1 construct: expressed in transfected cells
T1 sequence (Q8CIP3 1-322): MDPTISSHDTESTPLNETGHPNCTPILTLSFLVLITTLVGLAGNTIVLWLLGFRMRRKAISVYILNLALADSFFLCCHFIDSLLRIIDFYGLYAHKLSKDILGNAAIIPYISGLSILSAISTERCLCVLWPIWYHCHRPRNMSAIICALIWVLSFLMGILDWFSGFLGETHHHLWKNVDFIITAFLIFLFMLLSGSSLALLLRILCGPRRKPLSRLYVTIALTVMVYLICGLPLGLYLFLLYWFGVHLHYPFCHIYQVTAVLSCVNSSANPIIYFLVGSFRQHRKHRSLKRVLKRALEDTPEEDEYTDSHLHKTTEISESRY
Description: All cultured cells were maintained in DMEM supplemented with 10% FBS and 1% Penicillin/Streptomycin at 37°C, 5% CO2. All data included were generated from cells tested for mycoplasma and found to be negative. Cells were imaged in calcium imaging buffer (CIB; 10 mM HEPES, 1.2 mM NaHCO3, 130 mM NaCl, 3 mM KCl, 2.5 mM CaCl2, 0.6 mM MgCl2, 20 mM glucose, and 20 mM sucrose at pH 7.4 and 290–300 mOsm). To monitor changes in intracellular [Ca^2+] ([Ca^2+]i), cells were loaded with either Fura 2-AM (HEK293 cells) or Fluo 4-AM (DRG neurons and mast cells) for 30 min in the dark at 37°C in CIB just prior to imaging. With Fura 2-AM, emission at 510 nm was monitored from excitation at both 340 nm and 380 nm. With Fluo 4-AM, emission at 520 nm was monitored from excitation at 488 nm. Cells were identified as responding if the intracellular [Ca^2+] rose by either 50% compared to baseline or 50% compared to the [Ca^2+]i change assayed during addition of 50 mM KCl (neurons only). Damaged, detached, high-baseline, and motion-activated cells were excluded from analysis.
In initial screens, HEK293 cells stably expressing the murine G-protein alpha-subunit Gα15, a unique Gα protein that non-selectively couples a large variety of GPCRs to phospholipase C ^30, were plated on poly-D-lysine-coated coverslips and transiently transfected with constructs encoding the MRGRPR of interest. 12–24 hr later, cells were loaded with the Fura 2-AM. Unless otherwise specified, compounds were perfused into the imaging chamber for approximately thirty seconds after a baseline period was established. Response was then monitored at 5 s intervals for an additional 60 s.
HEK293 cells stably expressing either MRGPRA1, MRGPRX4, and MRGRPC11 were seeded in poly-D-lysine-coated 96-well plates at 10,000 cells/well. Cells were loaded with Fura 2–AM, washed twice, and maintained in CIB. Haem metabolites were freshly dissolved in DMSO in dim light and then diluted into a buffer comprised of 20 mM Tris and 150 mM NaCl at pH 8.8. Potential changes in pH were evaluated prior to each experiment. EC50 values were determined from dose-responses performed in triplicate, repeated 2–4 times. To determine potential antagonism by QWF against bilirubin, cells were treated with varying doses of QWF for 1 min in CIB prior to application of agonist.
HEK293 stable cell lines expressing GFP-tagged MRGPRA3, MRGPRC11, MRGPRD, MRGPRX1, and MRGPRX2 were generated in previously described reports ([Liu et al., 2009]; [Liu et al., 2012]; [McNeil et al., 2015]). Briefly, plasmids containing the receptor of interest were transfected into HEK cells using Lipofectamine 3000. After 3 days, cells were then selected using 0.5 mg/mL G418. After 3 weeks, monoclonal colonies were established and each the highest expressing clones were identified. For this study, Mrgpra1 and MRGPRX4 were inserted into pEGFP-N1 and transfected into HEK293 cells. MRGPR-positive cells were selected using 0.5 mg/mL G418 for three weeks, after which GFP-positive cells were sorted by FACS and monoclonally expanded. Two lines expressing similar levels of MRGPRA1 and MRGPRX4, as measured by GFP fluorescence, were selected for study.

MRGPRA1 = target: T2, MRGPRA1 (Mus musculus, UniProt Q91WW5); assay: [35S]GTPγS binding to MRGPRA1 membrane complexes; format: biochemical; details: 50 μM bilirubin
T2 construct: expressed in transfected cells
T2 sequence (Q91WW5 1-304): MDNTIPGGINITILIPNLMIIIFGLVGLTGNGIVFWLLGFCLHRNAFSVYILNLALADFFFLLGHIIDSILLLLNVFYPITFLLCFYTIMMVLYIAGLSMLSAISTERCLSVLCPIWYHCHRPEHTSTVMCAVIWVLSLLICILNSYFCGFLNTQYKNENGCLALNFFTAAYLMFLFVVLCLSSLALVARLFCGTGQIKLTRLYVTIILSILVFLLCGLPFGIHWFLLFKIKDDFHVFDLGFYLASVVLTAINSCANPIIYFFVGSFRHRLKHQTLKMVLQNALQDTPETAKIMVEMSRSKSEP
Description: MRGPR activation was determined by measuring binding of a radiolabelled and non-hydrolyzable form of GTP, [^35S]guanosine-5’-(γ-thio)triphosphate ([^35S]GTPγS) as previously described ([Vasavda et al., 2017]). Briefly, 10 µg of crude membrane fractions were diluted into 175 µL assay buffer (50 mM HEPES, 5 mM MgCl2, 100 mM NaCl, 1 mM EDTA, 0.1% […]) supplemented with 10 µM GDP and incubated at room temperature for 5 min. Membranes were then incubated an additional 1 min in a final volume of 199 μL assay buffer supplemented with 50 μM bilirubin. Samples were then brought to 200 μL with the addition of 10 nM [^35S]GTPγS. Samples were incubated for 2 hr at 4°C with gentle agitation. The experiment was terminated by rapid filtration onto GF/B filters and washed three times with wash buffer (50 mM Tris-HCl, 5 mM MgCl2, and 50 mM NaCl at pH 7.4). Filters were then immersed in scintillation cocktail and counted. Nonspecific binding was determined by competition with 10 μM unlabelled GTPγS. GTPγS binding assays were performed as two independent experiments, in triplicate.

Ca2+ response (concentration-Ca2+ response curve), replicate values (MRGPRC11; [Ligand] 3.90625e-6 M): 0 | Ca2+ response (concentration-Ca2+ response curve), replicate values (MRGPRC11; [Ligand] 7.8125e-6 M): 0 | Ca2+ response (concentration-Ca2+ response curve), replicate values (MRGPRC11; [Ligand] 1.5625e-5 M): 0 | Ca2+ response (concentration-Ca2+ response curve), replicate values (MRGPRC11; [Ligand] 3.125e-5 M): 0 | Ca2+ response (concentration-Ca2+ response curve), replicate values (MRGPRC11; [Ligand] 6.25e-5 M): 0 | Ca2+ response (concentration-Ca2+ response curve), replicate values (MRGPRC11; [Ligand] 0.000125 M): 0 | Ca2+ response (concentration-Ca2+ response curve), replicate values (MRGPRC11; [Ligand] 0.00025 M): 0 | Ca2+ response (concentration-Ca2+ response curve), replicate values (MRGPRC11; [Ligand] 0.0005 M): 0 | GTP binding to MRGPRA1 membrane complexes (MRGPRA1): increased GTP binding | [35S]GTPγS binding (MRGPRA1; MRGPRA1 membrane complexes (Fig 2K)): 197 and 184 and 159
Structure (SMILES): C=CC1=C(C)/C(=C/c2[nH]c(Cc3[nH]c(/C=C4\NC(=O)C(C)=C4C=C)c(C)c3CCC(=O)O)c(CCC(=O)O)c2C)NC1=O [bilirubin, bilirubin IXα]

From article PMC6368403, “Identification of a bilirubin receptor that may mediate a component of cholestatic itch” (eLife, 2019)
